Measurements reported in US8063071B2 (GlaxoSmithKline, LLC, priority 2007, dated 2011).
Counter-ions that a name gives are not always drawn.

Tests used:
[1] = target: T1, Recombinant human IKKβ (residues 1-737) (Homo sapiens, UniProt O14920); assay: IKK2 assay (TR-FRET); assay type: biochemical; conditions: ATP 1 μM final, read-out: pIC50 against IKK2 (converted)
T1 construct: Recombinant human IKKβ (residues 1-737); GST (C); made in house
T1 sequence (O14920 1-737): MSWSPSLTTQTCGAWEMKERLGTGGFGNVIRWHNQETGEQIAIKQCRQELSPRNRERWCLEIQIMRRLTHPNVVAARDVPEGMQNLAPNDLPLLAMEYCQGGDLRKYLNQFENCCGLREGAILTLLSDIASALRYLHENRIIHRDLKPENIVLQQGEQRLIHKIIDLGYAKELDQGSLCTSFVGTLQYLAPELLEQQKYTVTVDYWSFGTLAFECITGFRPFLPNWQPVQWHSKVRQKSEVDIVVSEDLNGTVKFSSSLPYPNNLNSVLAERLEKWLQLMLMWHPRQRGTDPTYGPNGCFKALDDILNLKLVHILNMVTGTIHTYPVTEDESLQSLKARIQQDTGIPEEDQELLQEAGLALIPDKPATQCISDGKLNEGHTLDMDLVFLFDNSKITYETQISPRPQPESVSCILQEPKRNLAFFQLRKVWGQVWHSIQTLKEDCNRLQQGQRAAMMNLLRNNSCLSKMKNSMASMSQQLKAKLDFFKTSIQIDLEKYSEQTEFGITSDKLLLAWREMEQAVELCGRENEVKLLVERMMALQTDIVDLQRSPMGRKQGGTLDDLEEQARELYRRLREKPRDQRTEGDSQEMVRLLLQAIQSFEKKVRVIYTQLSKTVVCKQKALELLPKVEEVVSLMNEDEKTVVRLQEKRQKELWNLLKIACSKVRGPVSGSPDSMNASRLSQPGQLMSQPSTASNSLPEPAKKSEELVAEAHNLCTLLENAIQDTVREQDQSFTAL
In short: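 TR-FRET readout (665 nm over 620 nm Eu reference) of GST-IB Ser32/36 phosphorylation after 60 min detection. Reaction: 1 μM ATP, 25 nM substrate, 0.5-5 nM GST-fused IKKβ 1-737 from baculovirus, pH 7.4 HEPES buffer, 1.7% DMSO, 15 min room temperature, EDTA-terminated.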

[2] = tested on: human monocyte stimulated cytokine production (TNF-α); assay: Monocyte assay (LPS-stimulated TNF-α production); assay type: cell-based; conditions: 24 h, 200 ng/mL LPS, TNF-α by ELISA
In short: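 TNF-α release was measured by ELISA after 24 hrs at 37 C. Cells were stimulated with 200 ng/mL E. coli LPS, with compound added 30 minutes beforehand (0.1% DMSO vehicle). Cells were Ficoll/MACS-isolated CD14+ human monocytes adhered at 1×10^6 cells/mL, and viability was checked by trypan blue.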

SMILES	IC50 [1] [µM]	IC50 [2] [µM]
CCS(=O)(=O)N1CCC(c2c[nH]c3c(C(N)=O)cc(-c4cc(F)cc(CN[C@H](C)C(C)(C)C)c4)cc23)CC1 [Example 320, 3-[1-(ethylsulfonyl)-4-piperidinyl]-5-[3-fluoro-5-({[(1R)-1,2,2-trimethylpropyl]amino}methyl)phenyl]-1H-indole-7-carboxamide trifluoroacetate]	≤ 10	≤ 1.5
CCS(=O)(=O)N1CCC(c2c[nH]c3c(C(N)=O)cc(-c4cc(F)cc(CNCC(C)(C)C)c4)cc23)CC1 [Example 321, 5-(3-{[(2,2-dimethylpropyl)amino]methyl}-5-fluorophenyl)-3-[1-(ethylsulfonyl)-4-piperidinyl]-1H-indole-7-carboxamide trifluoroacetate]	≤ 10	≤ 1.5
CCS(=O)(=O)N1CCC(c2c[nH]c3c(C(N)=O)cc(-c4cc(F)cc(CNCC5CC5)c4)cc23)CC1 [Example 322, 5-(3-{[(cyclopropylmethyl)amino]methyl}-5-fluorophenyl)-3-[1-(ethylsulfonyl)-4-piperidinyl]-1H-indole-7-carboxamide trifluoroacetate]	≤ 10	≤ 1.5
CCS(=O)(=O)N1CCC(c2c[nH]c3c(C(N)=O)cc(-c4cc(F)cc(CNCC5CCCC5)c4)cc23)CC1 [Example 323, 5-(3-{[(cyclopentylmethyl)amino]methyl}-5-fluorophenyl)-3-[1-(ethylsulfonyl)-4-piperidinyl]-1H-indole-7-carboxamide trifluoroacetate]	≤ 10	≤ 1.5
CCS(=O)(=O)N1CCC(c2c[nH]c3c(C(N)=O)cc(-c4cc(F)cc(CNCC5CCOCC5)c4)cc23)CC1 [Example 324, 3-[1-(ethylsulfonyl)-4-piperidinyl]-5-(3-fluoro-5-{[(tetrahydro-2H-pyran-4-ylmethyl)amino]methyl}phenyl)-1H-indole-7-carboxamide trifluoroacetate]	≤ 10	≤ 1.5

The next lines start with the values.

IC50 [1] [µM]	IC50 [2] [µM]	SMILES
≤ 10	≤ 1.5	CCS(=O)(=O)N1CCC(c2c[nH]c3c(C(N)=O)cc(-c4cc(F)cc(CN[C@H](C)C(C)C)c4)cc23)CC1 [Example 315, 5-[3-({[(1R)-1,2-dimethylpropyl]amino}methyl)-5-fluorophenyl]-3-[1-(ethylsulfonyl)-4-piperidinyl]-1H-indole-7-carboxamide trifluoroacetate]
≤ 10	≤ 1.5	CCC(C)NCc1cc(F)cc(-c2cc(C(N)=O)c3[nH]cc(C4CCN(S(=O)(=O)CC)CC4)c3c2)c1 (centres unmarked) [Example 316, 3-[1-(ethylsulfonyl)-4-piperidinyl]-5-(3-fluoro-5-{[(1-methylpropyl)amino]methyl}phenyl)-1H-indole-7-carboxamide trifluoroacetate]
≤ 10	≤ 1.5	CCS(=O)(=O)N1CCC(c2c[nH]c3c(C(N)=O)cc(-c4cc(F)cc(CN[C@@H](C)C(C)(C)C)c4)cc23)CC1 [Example 317, 3-[1-(ethylsulfonyl)-4-piperidinyl]-5-[3-fluoro-5-({[(1S)-1,2,2-trimethylpropyl]amino}methyl)phenyl]-1H-indole-7-carboxamide trifluoroacetate]
≤ 10	≤ 1.5	CC[C@H](C)CNCc1cc(F)cc(-c2cc(C(N)=O)c3[nH]cc(C4CCN(S(=O)(=O)CC)CC4)c3c2)c1 [Example 318, 3-[1-(ethylsulfonyl)-4-piperidinyl]-5-[3-fluoro-5-({[(2S)-2-methylbutyl]amino}methyl)phenyl]-1H-indole-7-carboxamide trifluoroacetate]
≤ 10	≤ 1.5	CCC(C)CNCc1cc(F)cc(-c2cc(C(N)=O)c3[nH]cc(C4CCN(S(=O)(=O)CC)CC4)c3c2)c1 (centres unmarked) [Example 319, 3-[1-(ethylsulfonyl)-4-piperidinyl]-5-(3-fluoro-5-{[(2-methylbutyl)amino]methyl}phenyl)-1H-indole-7-carboxamide trifluoroacetate]
